According to ChEMBL document CHEMBL5338827, “Evolution and Discovery of Matrine Derivatives as a New Class of Anti-Hepatic Fibrosis Agents Targeting Ewing Sarcoma Breakpoint Region 1 (EWSR1)” (J Med Chem, 2023):
Active and inactive are the calls of the source. The rule behind the calls is not given here.

Experiments:
[1] = molecular target: T1, RNA-binding protein EWS (Homo sapiens) (UniProt Q01844); experiment: Binding affinity to EWSR1 (unknown origin) in human LX2 cells by streptavidin bead based pull-down assay; type: cell-based
T1 sequence (whole entry): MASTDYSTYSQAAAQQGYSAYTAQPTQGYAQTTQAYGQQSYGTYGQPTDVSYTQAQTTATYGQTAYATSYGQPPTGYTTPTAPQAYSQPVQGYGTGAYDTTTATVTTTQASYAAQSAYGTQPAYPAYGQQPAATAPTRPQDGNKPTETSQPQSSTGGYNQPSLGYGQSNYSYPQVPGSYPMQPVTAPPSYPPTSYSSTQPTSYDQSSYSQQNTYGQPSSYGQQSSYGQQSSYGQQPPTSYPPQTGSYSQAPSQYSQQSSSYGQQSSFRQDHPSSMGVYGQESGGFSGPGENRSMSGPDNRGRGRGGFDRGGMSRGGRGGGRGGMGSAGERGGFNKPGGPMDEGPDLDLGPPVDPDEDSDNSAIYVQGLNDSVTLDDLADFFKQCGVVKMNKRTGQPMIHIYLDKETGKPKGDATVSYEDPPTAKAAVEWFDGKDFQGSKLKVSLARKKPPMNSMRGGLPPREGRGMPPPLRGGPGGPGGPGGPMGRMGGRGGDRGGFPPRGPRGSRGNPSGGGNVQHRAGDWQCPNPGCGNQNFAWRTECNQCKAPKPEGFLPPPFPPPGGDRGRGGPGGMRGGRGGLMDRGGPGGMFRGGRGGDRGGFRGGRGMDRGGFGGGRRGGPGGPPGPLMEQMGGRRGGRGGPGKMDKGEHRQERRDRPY

Rattus norvegicus [2] = experiment: Anti-hepatic fibrosis activity in bile duct ligation rat model assessed as reduction in parenchyma necrosis at 100 mg/kg, po administered for 14 days by hematoxylin and eosin staining based analysis; type: functional, organism-based; settings: time 14.0 day
Rattus norvegicus [3] = experiment: Anti-hepatic fibrosis activity in bile duct ligation rat model assessed as reduction in serum TBA level at 100 mg/kg, po administered for 14 days; type: functional; settings: time 14 day
Rattus norvegicus [4] = experiment: Anti-hepatic fibrosis activity in bile duct ligation rat model assessed as reduction in MMP2 mRNA expression at 100 mg/kg, po administered for 14 days by qRT-PCR analysis; type: functional, organism-based; settings: time 14.0 day
[5] = molecular target: T2, Secreted frizzled-related protein 1 (Homo sapiens) (UniProt Q8N474); experiment: Binding affinity to SFRP1 (unknown origin) in human LX2 cells by streptavidin bead based pull-down assay; type: cell-based
T2 sequence (whole entry): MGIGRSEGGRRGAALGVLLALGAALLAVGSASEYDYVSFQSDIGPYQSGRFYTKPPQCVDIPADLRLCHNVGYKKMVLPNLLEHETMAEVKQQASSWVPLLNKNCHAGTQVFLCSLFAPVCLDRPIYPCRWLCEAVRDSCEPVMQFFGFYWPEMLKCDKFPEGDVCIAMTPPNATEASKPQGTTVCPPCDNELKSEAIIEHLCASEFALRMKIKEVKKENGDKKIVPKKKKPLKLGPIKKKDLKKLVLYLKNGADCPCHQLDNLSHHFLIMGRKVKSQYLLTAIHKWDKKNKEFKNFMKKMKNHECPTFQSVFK

[6] = molecular target: T1, RNA-binding protein EWS (Homo sapiens); experiment: Induction of EWSR1 degradation in human LX2 cells at 20 uM measured upto 32 hrs in presence of cycloheximide; type: cell-based
Mus musculus [7] = experiment: Anti-hepatic fibrosis activity in MDR2 knockout liver injury mouse model assessed as reduction in alpha-SMA protein expression at 100 mg/kg, po administered once a day for 4 weeks by Western blot analysis; type: functional, organism-based
Mus musculus [8] = experiment: Anti-hepatic fibrosis activity in MDR2 knockout liver injury mouse model assessed as reduction in TGFB1 mRNA expression at 100 mg/kg, po administered once a day for 4 weeks by qRT-PCR analysis; type: functional, organism-based
Rattus norvegicus [9] = experiment: Anti-hepatic fibrosis activity in bile duct ligation rat model assessed as reduction in TGFB1 protein expression at 100 mg/kg, po administered for 14 days by Western blot analysis; type: functional, organism-based; settings: time 14.0 day
LX-2 = experiment: Downregulation of CTGF mRNA level in human LX2 cells; type: functional, cell-based
Rattus norvegicus [10] = experiment: Anti-hepatic fibrosis activity in bile duct ligation rat model assessed as reduction in CoL1A1 protein expression at 100 mg/kg, po administered for 14 days by Western blot analysis; type: functional, organism-based; settings: time 14.0 day
[11] = molecular target: Collagen alpha-1(I) chain (Homo sapiens, UniProt P02452); experiment: Inhibition of COL1A1 (unknown origin) expressed in human LX2 cells at 40 uM measured for 24 hrs relative to control; type: cell-based
Mus musculus [12] = experiment: Anti-hepatic fibrosis activity in MDR2 knockout liver injury mouse model assessed as reduction inflammatory infiltration at 100 mg/kg, po administered once a day for 4 weeks by H and E staining analysis; type: functional, organism-based

Collagen alpha-1(I) chain, sequence (P02452 whole entry): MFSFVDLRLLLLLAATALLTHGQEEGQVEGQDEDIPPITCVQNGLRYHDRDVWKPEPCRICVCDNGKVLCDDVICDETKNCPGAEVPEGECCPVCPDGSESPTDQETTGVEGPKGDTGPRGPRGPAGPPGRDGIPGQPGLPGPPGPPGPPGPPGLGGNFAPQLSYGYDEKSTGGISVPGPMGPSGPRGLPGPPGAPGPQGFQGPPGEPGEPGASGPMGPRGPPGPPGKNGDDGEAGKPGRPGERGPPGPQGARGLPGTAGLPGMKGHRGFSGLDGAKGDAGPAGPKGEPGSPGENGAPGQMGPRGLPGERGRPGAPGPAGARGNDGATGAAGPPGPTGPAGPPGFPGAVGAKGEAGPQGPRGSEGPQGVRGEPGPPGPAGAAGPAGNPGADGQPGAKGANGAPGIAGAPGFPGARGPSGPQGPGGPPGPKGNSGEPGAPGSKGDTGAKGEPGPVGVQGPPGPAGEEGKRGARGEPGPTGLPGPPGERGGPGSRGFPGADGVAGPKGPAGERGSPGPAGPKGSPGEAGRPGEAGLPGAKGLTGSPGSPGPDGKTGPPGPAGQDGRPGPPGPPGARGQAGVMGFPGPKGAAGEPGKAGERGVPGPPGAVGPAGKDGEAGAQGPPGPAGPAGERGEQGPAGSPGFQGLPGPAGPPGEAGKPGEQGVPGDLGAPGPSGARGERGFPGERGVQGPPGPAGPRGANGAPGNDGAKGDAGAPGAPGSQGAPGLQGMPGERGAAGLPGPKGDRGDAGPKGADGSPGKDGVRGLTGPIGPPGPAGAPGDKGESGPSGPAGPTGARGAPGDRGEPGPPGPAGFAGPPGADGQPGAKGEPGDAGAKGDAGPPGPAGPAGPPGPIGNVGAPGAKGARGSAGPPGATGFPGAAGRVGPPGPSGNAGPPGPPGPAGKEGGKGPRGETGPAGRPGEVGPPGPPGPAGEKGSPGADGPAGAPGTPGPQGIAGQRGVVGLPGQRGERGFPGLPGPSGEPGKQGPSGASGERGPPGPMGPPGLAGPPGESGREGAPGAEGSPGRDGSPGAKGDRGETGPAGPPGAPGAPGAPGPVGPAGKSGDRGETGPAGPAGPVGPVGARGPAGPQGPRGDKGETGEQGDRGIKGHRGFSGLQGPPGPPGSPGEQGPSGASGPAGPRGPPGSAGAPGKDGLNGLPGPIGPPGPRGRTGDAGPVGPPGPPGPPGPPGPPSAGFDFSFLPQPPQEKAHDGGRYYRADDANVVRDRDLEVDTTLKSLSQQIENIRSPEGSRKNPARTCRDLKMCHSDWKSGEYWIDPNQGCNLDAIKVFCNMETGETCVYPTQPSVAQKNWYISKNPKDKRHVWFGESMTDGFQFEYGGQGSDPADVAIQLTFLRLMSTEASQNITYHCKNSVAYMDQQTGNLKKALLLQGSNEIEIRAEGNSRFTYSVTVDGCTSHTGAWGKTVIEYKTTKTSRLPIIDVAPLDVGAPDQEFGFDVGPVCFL

## CCCC[C@@H]1[C@H]2CCCN3CCC[C@@H](CN1C(=O)Nc1c(CC)cccc1CC)[C@@H]23
[1]
  Activity: inactive
Rattus norvegicus [2]
  Activity: Active
Rattus norvegicus [3]
  Activity: 173 µmol/L
Rattus norvegicus [4]
  Activity: Active
[5]
  Activity: inactive
[6]
  Activity: inactive
Mus musculus [7]
  Activity: Active
Mus musculus [8]
  Activity: Active
Rattus norvegicus [9]
  Activity: Active
LX-2
  Activity: Active
Rattus norvegicus [10]
  Activity: Active
[11]
  inhibition: 98.8%
Mus musculus [12]
  Activity: Active
